Laboratory results reported in ChEMBL document CHEMBL3044572, “Discovery of 2-(4-cyano-3-trifluoromethylphenyl amino)-4-(4-quinazolinyloxy)-6-piperazinyl(piperidinyl)-s-triazines as potential antibacterial agents” (2012).
In brackets after ≈: the same amount, converted by molar mass. Activity calls are given as the source filed them. The calls are words filed in the database; no cut-off is given here.

Columns and labels:
Candida albicans [1] = assay: Antimicrobial activity against Candida albicans MTCC 183 by agar streak dilution method; type: functional
Aspergillus clavatus [2] = assay: Antimicrobial activity against Aspergillus clavatus MTCC 1323 by paper disk diffusion method; type: functional
Aspergillus niger [3] = assay: Antimicrobial activity against Aspergillus niger MTCC 282 by paper-disk diffusion method; type: functional
Aspergillus fumigatus [4] = assay: Antimicrobial activity against Aspergillus fumigatus MTCC 343 by paper-disk diffusion method; type: functional
Shigella flexneri [5] = assay: Antimicrobial activity against Shigella flexneri MTCC 1457 at 100 ug/ml by paper-disk diffusion method; type: functional, organism-based
Proteus vulgaris [6] = assay: Antimicrobial activity against Proteus vulgaris MTCC 1771 by paper disk diffusion method; type: functional
Salmonella typhi [7] = assay: Antimicrobial activity against Salmonella enterica subsp. enterica serovar Typhi MTCC 733 by paper disk diffusion method; type: functional
Klebsiella pneumoniae [8] = assay: Antimicrobial activity against Klebsiella pneumoniae MTCC 109 by paper disk diffusion method; type: functional
Pseudomonas aeruginosa [9] = assay: Antimicrobial activity against Pseudomonas aeruginosa MTCC 741 by paper disk diffusion method; type: functional
Bacillus cereus [10] = assay: Antimicrobial activity against Bacillus cereus MTCC 619 by paper disk diffusion method; type: functional
Escherichia coli [11] = assay: Antimicrobial activity against Escherichia coli MTCC 739 by paper disk diffusion method; type: functional
Staphylococcus aureus [12] = assay: Antimicrobial activity against Staphylococcus aureus MTCC 96 by paper-disk diffusion method; type: functional
Aspergillus clavatus [13] = assay: Antimicrobial activity against Aspergillus clavatus MTCC 1323 by agar streak dilution method; type: functional
Aspergillus fumigatus [14] = assay: Antimicrobial activity against Aspergillus fumigatus MTCC 343 by agar streak dilution method; type: functional
Aspergillus niger [15] = assay: Antimicrobial activity against Aspergillus niger MTCC 282 by agar streak dilution method; type: functional
Proteus vulgaris [16] = assay: Antimicrobial activity against Proteus vulgaris MTCC 1771 by agar streak dilution method; type: functional
Klebsiella pneumoniae [17] = assay: Antimicrobial activity against Klebsiella pneumoniae MTCC 109 by agar streak dilution method; type: functional
Salmonella typhi [18] = assay: Antimicrobial activity against Salmonella enterica subsp. enterica serovar Typhi MTCC 733 by agar streak dilution method; type: functional
Pseudomonas aeruginosa [19] = assay: Antimicrobial activity against Pseudomonas aeruginosa MTCC 741 by agar streak dilution method; type: functional
Staphylococcus aureus [20] = assay: Antimicrobial activity against Staphylococcus aureus MTCC 96 by agar streak dilution method; type: functional
Bacillus cereus [21] = assay: Antimicrobial activity against Bacillus cereus MTCC 619 by agar streak dilution method; type: functional
[22] = tested on: Mycobacterium tuberculosis; assay: Antimicrobial activity against Mycobacterium tuberculosis H37Rv at 100 ug/ml by BACTEC MGIT method; type: functional, organism-based
Escherichia coli [23] = assay: Antimicrobial activity against Escherichia coli MTCC 739 by agar streak dilution method; type: functional
[24] = tested on: Mycobacterium tuberculosis; assay: Antimicrobial activity against Mycobacterium tuberculosis H37Rv by Lowenstein and Jensen method; type: functional; conditions: for MIC: Mycobacterium tuberculosis, H37Rv
[25] = tested on: Mycobacterium tuberculosis; assay: Antimicrobial activity against Mycobacterium tuberculosis H37Rv by BACTEC MGIT method; type: functional; conditions: Mycobacterium tuberculosis, H37Rv
Candida albicans [26] = assay: Antimicrobial activity against Candida albicans MTCC 183 by paper-disk diffusion method; type: functional
Aspergillus fumigatus [27] = assay: Antimicrobial activity against Aspergillus fumigatus MTCC 343 at 100 ug/ml by paper-disk diffusion method; type: functional, organism-based
Aspergillus clavatus [28] = assay: Antimicrobial activity against Aspergillus clavatus MTCC 1323 at 100 ug/ml by paper disk diffusion method; type: functional, organism-based
Pseudomonas aeruginosa [29] = assay: Antimicrobial activity against Pseudomonas aeruginosa MTCC 741 at 100 ug/ml by paper disk diffusion method; type: functional, organism-based
Shigella flexneri [30] = assay: Antimicrobial activity against Shigella flexneri MTCC 1457 by paper disk diffusion method; type: functional
Shigella flexneri [31] = assay: Antimicrobial activity against Shigella flexneri MTCC 1457 by agar streak dilution method; type: functional

SMILES | MIC (Candida albicans [1]) [µg/mL] | inhibition zone (IZ) (Aspergillus niger [3]) [mm] | inhibition zone (IZ) (Proteus vulgaris [6]) [mm] | inhibition zone (IZ) (Salmonella typhi [7]) [mm] | inhibition zone (IZ) (Klebsiella pneumoniae [8]) [mm] | inhibition zone (IZ) (Bacillus cereus [10]) [mm] | inhibition zone (IZ) (Escherichia coli [11]) [mm] | inhibition zone (IZ) (Staphylococcus aureus [12]) [mm] | MIC (Aspergillus niger [15]) [µg/mL] | MIC (Proteus vulgaris [16]) [µg/mL] | MIC (Klebsiella pneumoniae [17]) [µg/mL] | MIC (Salmonella typhi [18]) [µg/mL] | MIC (Staphylococcus aureus [20]) [µg/mL] | MIC (Bacillus cereus [21]) [µg/mL] | inhibition [22] | MIC (Escherichia coli [23]) [µg/mL] | inhibition (percent inhibition) [24] [%] | MIC [24] [µg/mL] | MIC [25] [µg/mL] | inhibition zone (IZ) (Candida albicans [26]) [mm] | other results
N#Cc1ccc(Nc2nc(Oc3ncnc4ccccc34)nc(N3CCC(Cc4ccccc4)CC3)n2)cc1C(F)(F)F | 100 (≈ 172 µM) | 21 | 23 | 22 | 23 | 23 | 21 | 23 | 100 (≈ 172 µM) | 25 (≈ 42.9 µM) | 100 (≈ 172 µM) | 100 (≈ 172 µM) | 100 (≈ 172 µM) | 100 (≈ 172 µM) | inactive | 100 (≈ 172 µM) | 94 | 500 (≈ 858 µM) | > 6.25 | 22 | inhibition zone (IZ) (Aspergillus clavatus [2]): 20 mm; inhibition zone (IZ) (Aspergillus fumigatus [4]): 21 mm; inhibition zone (IZ) (Shigella flexneri [5]): inactive; inhibition zone (IZ) (Pseudomonas aeruginosa [9]): 19 mm; MIC (Aspergillus clavatus [13]): 100 µg/mL (≈ 172 µM); MIC (Aspergillus fumigatus [14]): 100 µg/mL (≈ 172 µM); MIC (Pseudomonas aeruginosa [19]): 100 µg/mL (≈ 172 µM)
N#Cc1ccc(Nc2nc(Oc3ncnc4ccccc34)nc(N3CCN(c4ncccn4)CC3)n2)cc1C(F)(F)F | 100 (≈ 175 µM) | 22 | 21 | 22 | 20 | 25 | 23 | 23 | 100 (≈ 175 µM) | 100 (≈ 175 µM) | 100 (≈ 175 µM) | 50 (≈ 87.5 µM) | 25 (≈ 43.7 µM) | 50 (≈ 87.5 µM) | inactive | 100 (≈ 175 µM) | 96 | 200 (≈ 350 µM) | > 6.25 | 22 | inhibition zone (IZ) (Shigella flexneri [5]): inactive; inhibition zone (IZ) (Pseudomonas aeruginosa [9]): 22 mm; MIC (Pseudomonas aeruginosa [19]): 50 µg/mL (≈ 87.5 µM); inhibition zone (IZ) (Aspergillus fumigatus [27]): inactive; inhibition zone (IZ) (Aspergillus clavatus [28]): inactive
N#Cc1ccc(Nc2nc(Oc3ncnc4ccccc34)nc(N3CCN(Cc4ccccc4)CC3)n2)cc1C(F)(F)F | 100 (≈ 171 µM) | 21 | 21 | 23 | 23 | 23 | 21 | 22 | 100 (≈ 171 µM) | 100 (≈ 171 µM) | 100 (≈ 171 µM) | 100 (≈ 171 µM) | 50 (≈ 85.7 µM) | 100 (≈ 171 µM) | inactive | 100 (≈ 171 µM) | 95 | 500 (≈ 857 µM) | > 6.25 | 21 | inhibition zone (IZ) (Aspergillus clavatus [2]): 20 mm; inhibition zone (IZ) (Pseudomonas aeruginosa [29]): inactive; inhibition zone (IZ) (Shigella flexneri [30]): 20 mm; MIC (Aspergillus clavatus [13]): 100 µg/mL (≈ 171 µM); MIC (Shigella flexneri [31]): 100 µg/mL (≈ 171 µM); inhibition zone (IZ) (Aspergillus fumigatus [27]): inactive
